{
  "source": "patent US20250134928A1",
  "about": "“METHODS FOR IDENTIFYING AND USING ALLOGENEIC TUMOR INFILTRATING LYMPHOCYTES TO TREAT CANCER” (OBSIDIAN THERAPEUTICS, INC., priority 2022, published 2025)",
  "system": "regulated mbIL15 TILs",
  "experiment": "ACZ dose response of IL15 expression and signaling, phospho-flow cytometry",
  "assay_type": "cell-based, human",
  "conditions": "18 hours, 0.1-100 μM ACZ",
  "procedure": "Pre-REP TILs were prepared similarly to the methods of Example 1-3 and 9, and unengineered and mbIL15 TIL generated accordingly as described in Examples 1-3 and 9. Engagement of the IL15 signaling pathway results in phosphorylation of signal transducers downstream, including the transcription factor protein STAT5 and ribosomal protein S6. […] Next, the regulated mbIL15 TILs were regulated for 18 hours in the presence of a range of concentrations of ACZ including 0.1, 1, 2.5, 5, 10, 25, 100 μM, as well as vehicle control. The regulated mbIL15 TILs were then collected for staining and FACS analysis.\nBriefly, cells were stained using antibodies for CD3, CD4, CD8, IL15 and a Live/Dead marker. Then cells were fixed in 2% formaldehyde (BD Cytofix) and permeabilized using a methanol-based buffer (BD Phospho Perm III Buffer) before staining with antibodies specific for phosphorylated STAT5 (Biolegend) and S6 (Cell Signaling Technology). Cells were acquired on the BD Symphony and analyzed using FlowJo software.",
  "data": [
    {"smiles": "CC(=O)Nc1nnc(S(N)(=O)=O)s1", "note": "[ACZ, acetazolamide]", "values": [
      {"measurement": "staining intensity of pSTAT5 and pS6", "value": "increased with higher concentrations of ACZ"},
      {"measurement": "ACZ concentration at which mbIL15 expression plateaus", "setting": "four donors", "value": "10 to 25", "unit": "µM"}
    ]}
  ]
}
